This note sets out measurements from ChEMBL document CHEMBL6109121, “Discovery of Novel Sulfonylurea NLRP3 Inflammasome Inhibitor for the Treatment of Multiple Inflammatory Diseases” (J Med Chem, 2025).

The structures appear in SMILES notation. Active and inactive are the calls of the source. No cut-off for these calls is given here.

Assay [1] has as its system Mus musculus. The assay can be described thus: Anti-colitis activity in DSS-induced acute ulcerative colitis male C57BL/6J mouse model assessed as reduction in fecal bleeding at 0.2 to 5 mg/kg, po preadministered with DSS for 7 days followed by 3 days of drinking water and measured after 10 days of compound administration. To be noted: dose 0.2-5 mg/kg, time 10.0 day. Format: functional, organism-based.

Assay [2] deals with T1, Nlrp3/Pycard (Mus musculus) (UniProt Q8R4B8+Q9EPB4). Briefly: Inhibition of NLRP3-ASC protein-protein interaction in LPS/ATP stimulated male C57BL/6J mouse BMDM cells by co-immunoprecipitation based Western blot analysis. Format: cell-based. (Immunoblotting shows a protein as a band on a membrane.)
In assay [3] the test system is Mus musculus. Briefly: Anti-colitis activity in DSS-induced acute ulcerative colitis male C57BL/6J mouse model assessed as increase in colon length at 0.2 to 5 mg/kg, po preadministered with DSS for 7 days followed by 3 days of drinking water and measured after 10 days of compound administration. Format: functional, organism-based. The note with it: dose 0.2-5 mg/kg, time 10.0 day.

In assay [4] the test system is BMDM. Briefly: Inhibition of NLRC4 inflammasome activation in LPS/flagellin-stimulated male C57BL/6J mouse BMDM cells assessed as inhibition of IL-1beta secretion pretreated with LPS followed by compound addition for 4 hrs and measured after 2 hrs of Salmonella typhimurium flagellin addition by ELISA. Format: cell-based. To be noted: time 6.0 hrs. A general note: In an ELISA, binding on a coated surface is turned into a signal by an enzyme label.

For assay [5], the system named is Mus musculus. Briefly: Antidiabetic activity in HFD-fed STZ-induced diabetic kidney disease male C57BL/6J mouse model assessed as reduction in LDL-C level in serum at 20 mg/kg fed with high fat diet for 4 weeks followed by STZ administration for 5 days and measured 6 weeks post compound administration via gavage. Format: functional, organism-based.
The subject of assay [6] is Mus musculus. The assay can be described thus: Anti-colitis activity in DSS-induced acute ulcerative colitis male C57BL/6J mouse model assessed as reduction in crypt necrosis in colon at 0.2 to 5 mg/kg, po preadministered with DSS for 7 days followed by 3 days of drinking water and measured after 10 days of compound administration by H and E staining based analysis. Format: functional, organism-based. The note with it: dose 0.2-5 mg/kg, time 10.0 day.

The test system of assay [7] is Mus musculus. The assay can be described thus: Anti-colitis activity in DSS-induced acute ulcerative colitis male C57BL/6J mouse model assessed as decrease in disease activity index score at 0.2 to 5 mg/kg, po preadministered with DSS for 7 days followed by 3 days of drinking water and measured after 10 days of compound administration. It counts as functional, organism-based. The note with it: dose 0.2-5 mg/kg, time 10.0 day.

Assay [8] concerns Mus musculus. The assay can be described thus: Antidiabetic activity in HFD-fed STZ-induced diabetic kidney disease male C57BL/6J mouse model assessed as reduction in macrophage infiltration in kidney at 20 mg/kg fed with high fat diet for 4 weeks followed by STZ administration for 5 days and measured 6 weeks post compound administration via gavage by F4/80 immunostaining based analysis. Format: functional, organism-based.

A short description of assay [9]: Cytotoxicity against male C57BL/6J mouse BMDM cells. It counts as functional.
For assay [10], the system named is Mus musculus. The assay can be described thus: Effect on TNF-alpha level in serum of LPS/ATP-induced acute peritonitis male C57BL/6J mouse model at 1 to 20 mg/kg, po preadministered with compound for 1 hrs followed by LPS addition for 2 hrs and measured 12 hrs post ATP administration by ELISA. It counts as functional, organism-based. To be noted: dose 1-20 mg/kg, time 13.0 hrs.

Assay [11] is described as follows: Inhibition of NLRP3 inflammasome activation in LPS/ATP-stimulated male C57BL/6J mouse BMDM cells assessed as inhibition of IL-1beta secretion […] for 4 hrs followed by compound administration for 30 mins and measured after 1 hrs of ATP addition by ELISA. It counts as cell-based.
For assay [12], the system named is Mus musculus. Briefly: Anti-colitis activity in DSS-induced acute ulcerative colitis male C57BL/6J mouse model assessed as reduction in body weight loss at 5 mg/kg, po preadministered with DSS for 7 days followed by 3 days of drinking water and measured after 10 days of compound administration. It counts as functional, organism-based. The note with it: time 10.0 day.

Assay [13] has as its system Mus musculus. Briefly: Antidiabetic activity in HFD-fed STZ-induced diabetic kidney disease male C57BL/6J mouse model assessed as reduction in glomerular thickening in kidney at 20 mg/kg fed with high fat diet for 4 weeks followed by STZ administration for 5 days and measured 6 weeks post compound administration via gavage by histological analysis. Format: functional, organism-based.

The target of assay [14] is NACHT, LRR and PYD domains-containing protein 3 (Mus musculus) (UniProt Q8R4B8). Briefly: In vivo inhibition of NLRP3 inflammasome activation in DSS-induced acute ulcerative colitis male C57BL/6J mouse model assessed as reduction in IL-1beta level in colon at 0.2 to 5 mg/kg, po preadministered with DSS for 7 days followed by 3 days of drinking water and measured after 10 days of compound administration by ELISA. Format: functional, organism-based. To be noted: dose 0.2-5 mg/kg, time 10.0 day.

Assay [15] shares this target. The assay can be described thus: In vivo inhibition of NLRP3 inflammasome activation in LPS/ATP-induced acute peritonitis male C57BL/6J mouse model assessed as reduction in IL-1beta level in serum preadministered orally with compound for 1 hrs followed by LPS addition for 2 hrs and measured 12 hrs post ATP administration by ELISA. It counts as functional, organism-based. To be noted: dose 1-20 mg/kg, route po, time 13.0 hrs.

Assay [16] concerns the target T1, Nlrp3/Pycard (Mus musculus). Briefly: In vivo inhibition of NLRP3-ASC protein-protein interaction in HFD-fed STZ-induced diabetic kidney disease male C57BL/6J mouse model at 20 mg/kg fed with high fat diet for 4 weeks followed by STZ administration for 5 days and measured 6 weeks post compound administration via gavage by co-immunoprecipitation based Western blot analysis. It counts as functional, organism-based.

By CC50 is commonly meant the concentration that lowers cell viability or growth by half. Higher therefore signals better tolerance by the cells. The term IC50 denotes the concentration needed to halve the response being measured.

T1 sequence (Q8R4B8 whole entry, looked up): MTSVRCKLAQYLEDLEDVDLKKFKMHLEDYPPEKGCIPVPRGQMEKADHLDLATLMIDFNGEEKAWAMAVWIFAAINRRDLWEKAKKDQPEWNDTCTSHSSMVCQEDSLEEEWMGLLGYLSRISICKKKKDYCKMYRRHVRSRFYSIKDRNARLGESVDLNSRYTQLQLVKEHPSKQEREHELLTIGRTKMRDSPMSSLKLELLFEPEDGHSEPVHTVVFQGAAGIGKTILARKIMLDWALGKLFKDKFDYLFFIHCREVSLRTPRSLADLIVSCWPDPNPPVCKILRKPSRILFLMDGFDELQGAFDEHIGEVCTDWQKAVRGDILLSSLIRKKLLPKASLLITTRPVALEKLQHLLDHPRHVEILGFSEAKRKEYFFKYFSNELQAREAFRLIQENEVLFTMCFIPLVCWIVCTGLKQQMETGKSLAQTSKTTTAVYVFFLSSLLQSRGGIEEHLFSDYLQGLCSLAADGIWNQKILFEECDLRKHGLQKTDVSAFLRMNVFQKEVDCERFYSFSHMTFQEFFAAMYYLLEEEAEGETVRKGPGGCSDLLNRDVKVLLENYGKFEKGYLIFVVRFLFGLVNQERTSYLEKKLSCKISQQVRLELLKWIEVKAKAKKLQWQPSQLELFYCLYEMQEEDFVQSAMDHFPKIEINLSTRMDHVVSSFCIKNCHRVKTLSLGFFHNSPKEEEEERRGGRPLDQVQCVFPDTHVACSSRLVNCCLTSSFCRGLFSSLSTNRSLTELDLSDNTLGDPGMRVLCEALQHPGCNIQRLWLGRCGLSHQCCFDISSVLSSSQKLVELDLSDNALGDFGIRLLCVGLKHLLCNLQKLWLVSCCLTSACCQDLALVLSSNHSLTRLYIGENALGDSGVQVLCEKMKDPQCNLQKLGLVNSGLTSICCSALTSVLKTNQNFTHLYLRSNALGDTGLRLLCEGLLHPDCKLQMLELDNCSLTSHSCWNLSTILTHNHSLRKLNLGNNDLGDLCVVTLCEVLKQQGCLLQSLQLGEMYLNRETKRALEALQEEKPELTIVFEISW
T1 sequence (Q9EPB4 whole entry, looked up): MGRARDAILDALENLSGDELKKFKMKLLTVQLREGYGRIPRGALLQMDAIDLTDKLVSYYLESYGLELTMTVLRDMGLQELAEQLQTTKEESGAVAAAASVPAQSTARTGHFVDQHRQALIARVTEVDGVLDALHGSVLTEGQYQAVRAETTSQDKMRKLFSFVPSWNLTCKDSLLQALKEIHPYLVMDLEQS
Chain of NACHT, LRR and PYD domains-containing protein 3 (Mus musculus) (Q8R4B8 whole entry, the tested form may be a part): as the sequence (Q8R4B8 whole entry, looked up) above

`CN1CCC(N(C)S(=O)(=O)NC(=O)Nc2c3c(cc4c2CCC4)CCC3)CC1`: the outcome in [1], in [5], in [6], in [7], in assay [8] and in [13] was Active. The inhibition result in assay [2], in [14] and in assay [16] was “Active” throughout. Further, the outcome in assay [3] and in assay [10] was inactive. In [4], the inhibition entry is “inactive”. In addition, the CC50 in assay [9] is > 100000 nM. The IC50 in assay [11] amounted to 106 nM. Also, the Activity entry in [12] was “Active; Significant Difference Not Observed”. Besides, in [15], the inhibition result is “Dose-dependent-effect”.
